In patent publication US10005767B2, “Compositions and methods for inhibition of the JAK pathway” (Rigel Pharmaceuticals, Inc., priority 2009, dated 2018):
Where a name gives a salt, the structure may show the parent alone. Read-outs that look alike come from different tables or passages of the source.

Test system: human primary T-cells, IL-2 stimulated proliferation (JAK-1 and JAK-3 dependent; reported as JAK3 activity)
Assay: Human primary T-cell proliferation stimulated by IL-2 (Example 3)
Assay type: cell-based
Details: tested under conditions described in Example 3 (IL-2 stimulated human primary T-cell proliferation), read-out: ability to inhibit JAK3 activity, IC50 range (Table V)
Summary of the method: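 Peripheral-blood human T-cells pre-activated via TCR/CD28, IL-2-starved overnight, then cultured 72 h at 37 °C with compound in Yssel's medium containing IL-2 (80 U/mL in cell suspension). Proliferation read as viable-cell ATP by CellTiter-Glo luminescence; reduction versus control taken as JAK pathway inhibition.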

Row | Compound | IC50 (Homo sapiens, T-cell) [nM] | IC50 [nM]
1 | Cc1cnc(Nc2ccc(N3CCC(N(C)C)C3)nc2)nc1Nc1ccc2oc(=O)[nH]c2c1 (stereo not drawn) [II-80, 5-(2-(6-(3-(dimethylamino)pyrrolidin-1-yl)pyridin-3-ylamino)-5-methylpyrimidin-4-ylamino)benzo[d]oxazol-2(3H)-one] | < 500 | 
2 | Cc1cnc(Nc2ccc(N(C)[C@H]3CCCNC3)nc2)nc1Nc1ccc2oc(=O)[nH]c2c1 [II-103, (S)-5-(5-methyl-2-(6-(methyl(piperidin-3-yl)amino)pyridin-3-ylamino)pyrimidin-4-ylamino)benzo[d]oxazol-2(3H)-one] | < 500 | 
3 | Cc1cnc(Nc2ccc3c(c2)OC(C)(C)O3)nc1Nc1ccc2oc(=O)[nH]c2c1 [IV-17, 5-[2-(2,2-Dimethyl-benzo[1,3]dioxol-5-ylamino)-5-methyl-pyrimidin-4-ylamino]-3H-benzooxazol-2-one] | < 500 | 
4 | CCOP(=O)(OCC)N1CCN(c2ccc(Nc3ncc(C)c(Nc4ccc5oc(=O)[nH]c5c4)n3)cn2)C[C@H]1C [II-58, (R)-diethyl 2-methyl-4-(5-(5-methyl-4-(2-oxo-2,3-dihydrobenzo[d]oxazol-5-ylamino)pyrimidin-2-ylamino)pyridin-2-yl)piperazin-1-ylphosphonate] |  | < 500
5 | Cc1cnc(Nc2ccc(OCC(N)=O)cc2)nc1Nc1ccc2oc(=O)[nH]c2c1 [Compound I-307, N2-(4-aminocarbonylmethoxy)phenyl-5-methyl-N4-(2-oxo-2,3-dihydro-1,3-benzoxazol-5-yl)-2,4-pyrimidinediamine] |  | < 500
6 | Cc1cnc(Nc2ccc(N3CCC(F)(F)CC3)nc2)nc1Nc1ccc2oc(=O)[nH]c2c1 [II-59, 5-(2-(6-(4,4-difluoropiperidin-1-yl)pyridin-3-ylamino)-5-methylpyrimidin-4-ylamino)benzo[d]oxazol-2(3H)-one] | < 500 | 
7 | Cc1cnc(Nc2cnc(N3CC4CCC(C3)N4C(=O)C(F)(F)F)c(C)c2)nc1Nc1ccc2oc(=O)[nH]c2c1 [II-63, 5-(5-methyl-2-(5-methyl-6-(8-(2,2,2-trifluoroacetyl)-3,8-diaza-bicyclo[3.2.1]octan-3-yl)pyridin-3-ylamino)pyrimidin-4-ylamino)benzo[d]oxazol-2(3H)-one] | < 500 | 
8 | Cc1cnc(Nc2ccc3c(c2)OCC(=O)N3)nc1Nc1ccc2oc(=O)[nH]c2c1 [IV-32, 7-(5-methyl-4-(2-oxo-2,3-dihydrobenzo[d]oxazol-5-ylamino)pyrimidin-2-ylamino)-2H-benzo[b][1,4]oxazin-3 (4H)-one] | < 500 | 
9 | Cc1cc(Nc2ncc(C)c(Nc3ccc4oc(=O)[nH]c4c3)n2)cc(C(F)F)c1 [Compound I-237, 5-(2-(3-(difluoromethyl)-5-methylphenylamino)-5-methylpyrimidin-4-ylamino)benzo[d]oxazol-2(3H)-one] | < 500 | 
10 | Cc1cnc(Nc2ccc3c(c2)CCCN(C)C3=O)nc1Nc1ccc2oc(=O)[nH]c2c1 [IV-21, 5-(5-methyl-2-(2-methyl-1-oxo-2,3,4,5-tetrahydro-1H-benzo[c]azepin-7-ylamino)pyrimidin-4-ylamino)benzo[d]oxazol-2(3H)-one] | < 500 | 
11 | Cc1cnc(Nc2ccc(C(=O)NC(C)C)cc2)nc1Nc1ccc2oc(=O)[nH]c2c1 [Compound I-139, N-Isopropyl-4-[5-methyl-4-(2-oxo-2,3-dihydro-benzooxazol-5-ylamino)-pyrimidin-2-ylamino]-benzamide] | < 500 | 
12 | CCc1ccc(Nc2ncc(C)c(Nc3ccc4oc(=O)[nH]c4c3)n2)cc1 [Compound I-504, 5-(2-(4-ethylphenylamino)-5-methylpyrimidin-4-ylamino)benzo[d]oxazol-2(3H)-one] | < 500 | 
13 | Cc1cnc(Nc2ccc(N3CCN(C)CC3)nc2)nc1Nc1ccc2[nH]c(=O)oc2c1 [II-25, 6-(5-methyl-2-(6-(4-methylpiperazin-1-yl)pyridin-3-ylamino)pyrimidin-4-ylamino)benzo[d]oxazol-2(3H)-one] | < 500 | 
14 | Cn1c(=O)oc2ccc(Nc3nc(Nc4cccc(S(N)(=O)=O)c4)ncc3F)cc21 [Compound I-75, N2-((3-aminosulfonyl)phenyl)-N4-(3-methyl-2-oxo-2,3-dihydrobenzo[d]oxazol-5-yl)-5-fluoropyrimidine-2,4-diamine] |  | < 500
15 | CCN1CCN(c2ncc(Nc3ncc(C)c(Nc4ccc5oc(=O)[nH]c5c4)n3)cc2F)CC1 [II-114, N4-(benzo[d]oxazolin-2(3H)-one-5-yl)-N2-[2-(4-ethylpiperazin-1-yl)-3-fluoropyridine-5-yl]-5-methyl-2,4-pyrimidinediamine] | < 500 | 
16 | Cc1cnc(Nc2cccc(C(=O)N3CCCC3)c2)nc1Nc1ccc2oc(=O)[nH]c2c1 [Compound I-246, 5-(5-methyl-2-(3-(pyrrolidine-1-carbonyl)phenylamino)pyrimidin-4-ylamino)benzo[d]oxazol-2(3H)-one] | < 500 | 
17 | Cc1cnc(Nc2ccc(N3CCC(NC(=O)C(F)(F)F)C3)nc2)nc1Nc1ccc2oc(=O)[nH]c2c1 (stereo not drawn) [II-83, 2,2,2-trifluoro-N-(1-(5-(5-methyl-4-(2-oxo-2,3-dihydrobenzo[d]oxazol-5-ylamino)pyrimidin-2-ylamino)pyridin-2-yl)pyrrolidin-3-yl)acetamide] | < 500 | 

Row | Compound | IC50 (Homo sapiens, T-cell) [nM] | IC50 [nM]
18 | Cc1cnc(Nc2cnc(N3CCN4CCC[C@H]4C3)c(C(F)(F)F)c2)nc1Nc1ccc2oc(=O)[nH]c2c1 [II-124, N2-[2-(S-1,4-diazabicylco[4.3.0]nonan-4-yl)-3-trifluoromethylpyridin-5-yl]-5-methyl-N4-(2-oxo-2,3-dihydro-1,3-benzoxazol-5-yl)-2,4-pyrimidinediamine] |  | < 500
19 | Cc1cnc(Nc2ccc(OCCCO)nc2)nc1Nc1ccc2oc(=O)[nH]c2c1 [II-148, N2-[2-(3-hydroxy)propoxypyridin-5-yl]-5-methyl-N4-(2-oxo-2,3-dihydro-1,3-benzoxazol-5-yl)-2,4-pyrimidinediamine] |  | 500 to 5000
20 | Cc1ccc(Nc2ncc(C)c(Nc3ccc4oc(=O)[nH]c4c3)n2)c(F)c1 [Compound I-514, 5-(2-(2-fluoro-4-methylphenylamino)-5-methylpyrimidin-4-ylamino)benzo[d]oxazol-2(3H)-one] | < 500 | 
21 | Cc1cnc(Nc2ccc(N3CCN(C)CC3)c(C#N)c2)nc1Nc1ccc2oc(=O)[nH]c2c1 [Compound I-341, N2-[3-cyano-4-(4-methylpiperazino)]phenyl-5-methyl-N4-(2-oxo-2,3-dihydro-1,3-benzoxazol-5-yl)-2,4-pyrimidinediamine] |  | < 500
22 | CCNC(=O)Nc1ccc(Nc2ncc(C)c(Nc3ccc4oc(=O)[nH]c4c3)n2)cc1 [Compound I-318, N2-[4-(ethylaminocarbonylamino)]phenyl-5-methyl-N4-(2-oxo-2,3-dihydro-1,3-benzoxazol-5-yl)-2,4-pyrimidinediamine] |  | < 500
23 | COc1cc(Nc2ncc(C)c(Nc3cc(F)c4oc(=O)[nH]c4c3)n2)cc(C)c1OC [Compound I-454, 5-(2-(3,4-dimethoxy-5-methylphenylamino)-5-methylpyrimidin-4-ylamino)-7-fluorobenzo[d]oxazol-2(3H)-one] | < 500 | 
24 | Cc1cnc(Nc2ccc3c(c2)C(NC(C)C)CCCC3)nc1Nc1ccc2oc(=O)[nH]c2c1 (stereo not drawn) [IV-12, 5-[2-(9-Isopropylamino-6,7,8,9-tetrahydro-5H-benzocyclohepten-2-ylamino)-5-methyl-pyrimidin-4-ylamino]-3H-benzooxazol-2-one] | < 500 | 
25 | Cc1cnc(Nc2ccc(N3CCN(C(C)C)[C@H](C)C3)nc2)nc1Nc1ccc2oc(=O)[nH]c2c1 [II-70, (R)-5-(2-(6-(4-isopropyl-3-methylpiperazin-1-yl)pyridin-3-ylamino)-5-methylpyrimidin-4-ylamino)benzo[d]oxazol-2(3H)-one] | < 500 | 
26 | Cc1cnc(Nc2ccc3oc(=O)[nH]c3c2)nc1Nc1ccc2oc(=O)[nH]c2c1 [IV-22, 5,5′-(5-methylpyrimidine-2,4-diyl)bis(azanediyl)dibenzo[d]oxazol-2(3H)-one] | < 500 | 
27 | Cc1cnc(Nc2ccc3c(c2)CNC3)nc1Nc1ccc2oc(=O)[nH]c2c1 [III-1, N4-(benzo[d]oxazol-2(3H)-on-5-yl)-N2-(isoindolin-5-yl)-5-methylpyrimidine-2,4-diamine] | < 500 | 
28 | Cc1cnc(Nc2ccc(-c3ccc(Cl)nc3)cc2)nc1Nc1ccc2oc(=O)[nH]c2c1 [Compound I-509, 5-(2-(4-(6-chloropyridin-3-yl)phenylamino)-5-methylpyrimidin-4-ylamino)benzo[d]oxazol-2(3H)-one trifluoroacetate salt] | > 10000 | 
29 | Cc1cnc(Nc2cc(C(C)O)cc(C(F)(F)F)c2)nc1Nc1ccc2oc(=O)[nH]c2c1 (stereo not drawn) [Compound I-446, 5-(2-(3-(1-hydroxyethyl)-5-(trifluoromethyl)phenylamino)-5-methylpyrimidin-4-ylamino)benzo[d]oxazol-2(3H)-one] | < 500 | 
30 | CCN1Cc2ccc(Nc3ncc(C)c(Nc4ccc5oc(=O)[nH]c5c4)n3)cc2C1 [III-5, N4-(benzo[d]oxazol-2(3H)-on-5-yl)-N2-(2-ethylisoindolin-5-yl)-5-methylpyrimidine-2,4-diamine] | < 500 | 
31 | Cc1cnc(Nc2cc(F)cc(C(F)(F)F)c2)nc1Nc1ccc2oc(=O)[nH]c2c1 [Compound I-162, 5-[2-(3-Fluoro-5-trifluoromethyl-phenylamino)-5-methyl-pyrimidin-4-ylamino]-3H-benzooxazol-2-one triflouroacetate salt] |  | > 10000
32 | Cc1cnc(Nc2ccccc2Cl)nc1Nc1ccc2oc(=O)[nH]c2c1 [Compound I-520, 5-(2-(2-chlorophenylamino)-5-methylpyrimidin-4-ylamino)benzo[d]oxazol-2(3H)-one] | 500 to 5000 | 
33 | Cc1cnc(Nc2ccc(C=O)cc2)nc1Nc1ccc2oc(=O)[nH]c2c1 [Compound I-4, N4-(benzo[d]oxazol-2(3H)-on-5-yl)-N2-(4-formylphenyl)-5-methylpyrimidine-2,4-diamine] | < 500 | 
